The text below walks through data of patent US20250144067A1, “PERSONALIZED STARVATION THERAPY FOR CANCER” (Faeth Therapeutics, Inc., priority 2021, published 2025).

Counter-ions that a name gives are not always drawn. Like-named read-outs stand apart in the source and are kept apart here.

Assay [1] deals with NCI-H292 lung cancer cells. Kind of assay: FDA drug screening, complete media vs cholesterol-free media with simvastatin (TABLE 2). It counts as cell-based, human.
Assay [2] has as its system NCI-H292 lung cancer cells. Kind of assay: FDA drug screening, complete media vs cholesterol-free media without statin (TABLE 1). It counts as cell-based, human.
Where [3] appears, read: NCI-H292 cells, cholesterol-free media with simvastatin 0.04 μM, FDA drug library screen (TABLE 2).
[4] abbreviates: NCI-H292 cells, complete media, FDA drug library screen (TABLE 2).
[5] abbreviates: complete media minus cholesterol-free media + simvastatin (0.04 μM), >0 enhanced anti-cancer activity, about 0 neutral, <0 antagonist.
[6] abbreviates: NCI-H292 cells, cholesterol-free media without statin, FDA drug library screen.
Where [7] appears, read: NCI-H292 cells, complete media, FDA drug library screen.
Where [8] appears, read: Complete minus Cholesterol-free, >0 enhanced anti-cancer activity, about 0 neutral, <0 antagonist.
[9] abbreviates: complete media minus cholesterol-free media + simvastatin, […].
Where [10] appears, read: Complete minus Cholesterol-free, greater than 0 enhanced anti-cancer activity, about 0 neutral, below 0 antagonist.
[11] abbreviates: NCI-H292 cells, FDA drug library screen, cholesterol-free media without statin.
Where [12] appears, read: NCI-H292 cells, FDA drug library screen, complete media.
[13] abbreviates: complete media vs cholesterol-free media + simvastatin (0.04 μM), >0 enhanced anti-cancer activity, about 0 neutral, <0 antagonist.
Where [14] appears, read: NCI-H292 cells, FDA drug library screen, cholesterol-free media with simvastatin 0.04 μM.

`[H]/N=C(\N/C(=N/[H])NCCCCCCNC(=N)NC(=N)Nc1ccc(Cl)cc1)Nc1ccc(Cl)cc1` [Chlorhexidine (digluconate)]: in assay [1] (setting [3]), the “Cholesterol-free media + simvastatin (0.04 μM)” value is listed as 1.008. In assay [1] (setting [4]), the “Complete Media” value is 0.9694. Also, the Difference in assay [1] (setting [5]) is recorded as −0.04; in assay [2] (complete vs cholesterol-free media, >0 enhanced anti-cancer activity, about 0 neutral, <0 antagonist), 0.12. In assay [2] (setting [6]), this compound registered a Cholesterol-free of 0.8244. The compound further gave a Complete in assay [2] (setting [7]) of 0.943.
For `CCCNCC(O)COc1ccccc1C(=O)CCc1ccccc1` (stereo not drawn) [Propafenone (hydrochloride)], in assay [1] (setting [3]), the “Cholesterol-free media + simvastatin (0.04 μM)” value came to 1.11. For the same compound, the “Complete Media” value in assay [1] (setting [4]) was determined as 1.1. The Difference in assay [1] (setting [5]) is −0.01; in assay [2] (setting [8]), 0.02. The Cholesterol-free in assay [2] (setting [6]) turned out to be 1.064. In assay [2] (setting [7]), the Complete is on record as 1.086.
Regarding `O=C1C=C2C=C[C@@H]3C[C@@]2(O1)[C@H]1CCCCN31` [(−)-Securinine], in assay [1] (NCI-H292 cells, cholesterol-free media with simvastatin 0.04 μM, […]), the “Cholesterol-free media + simvastatin (0.04 μM)” value is reported as 0.8712. Further, in assay [1] (NCI-H292 cells, complete media, […]), the “Complete Media” value is recorded as 0.9865. Further, the Difference in assay [1] (setting [9]) was found to be 0.12; in assay [2] (complete vs cholesterol-free media, […]), 0.17. The same compound had a Cholesterol-free in assay [2] (setting [6]) of 0.7572. The Complete in assay [2] (setting [7]) was determined as 0.9271.
Regarding `CC(C)(C)CC(=O)OCC(=O)[C@@]1(O)CC[C@H]2[C@@H]3CCC4=CC(=O)C=C[C@]4(C)[C@H]3[C@@H](O)C[C@@]21C` [Prednisolone Tebutate], in assay [1] (setting [3]), the “Cholesterol-free media + simvastatin (0.04 μM)” value stood at 0.7311. The “Complete Media” value in assay [1] (setting [4]) is listed as 0.7398. Besides, the Difference in assay [1] (setting [5]) was 0.01; in assay [2] (complete vs cholesterol-free media, greater than 0 enhanced anti-cancer activity, about 0 neutral, below 0 antagonists), −0.35. The compound also gave a Cholesterol-free in assay [2] (NCI-H292 cells, cholesterol-free media without statin) of 1.01. This compound returned a Complete in assay [2] (NCI-H292 cells, complete media) of 0.6634.
With `NCCCC[C@H](N[C@@H](CCc1ccccc1)C(=O)O)C(=O)N1CCC[C@H]1C(=O)O` [Lisinopril (dihydrate)], the “Cholesterol-free media + simvastatin (0.04 μM)” value in assay [1] (setting [3]) is 0.94. The “Complete Media” value in assay [1] (setting [4]) was 0.9409. For the same compound, the Difference in assay [1] (setting [5]) is reported as 0.00; in assay [2] (setting [10]), −0.08. The compound further registered a Cholesterol-free in assay [2] (setting [11]) of 1.734. This compound displayed a Complete in assay [2] (setting [12]) of 1.657.
With `O=C(OCCOCCO)c1ccccc1Nc1cccc(C(F)(F)F)c1` [Etofenamate], the “Cholesterol-free media + simvastatin (0.04 μM)” value in assay [1] (NCI-H292 cells, FDA library drug in cholesterol-free media with simvastatin 0.04 μM) turned out to be 2.387. The “Complete Media” value in assay [1] (NCI-H292 cells, FDA library drug in complete media) was 1.527. Also, the Difference in assay [1] (setting [13]) was −0.86; in assay [2] (setting [8]) it was 0.02. Moreover, the Cholesterol-free in assay [2] (setting [6]) stood at 1.014. The same compound returned a Complete in assay [2] (setting [7]) of 1.036.
Consider `CCCC(=O)OC[C@@H](OC(=O)CCC)[C@@H](OC(=O)CCC)[C@H](Cn1c2nc(=O)[nH]c(=O)c-2nc2cc(C)c(C)cc21)OC(=O)CCC` [Riboflavin Tetrabutyrate], for which the “Cholesterol-free media + simvastatin (0.04 μM)” value in assay [1] (setting [14]) was 1.163. The “Complete Media” value in assay [1] (setting [12]) is listed as 1.747. Moreover, the Difference in assay [1] (setting [9]) amounted to 0.58; in assay [2] (Complete minus Cholesterol-free, […]), 0.07. In assay [2] (setting [6]), this compound displayed a Cholesterol-free of 0.7766. In assay [2] (setting [7]), the Complete is listed as 0.8432.
In the case of `CCN(CC)CCCC(C)Nc1ccnc2cc(Cl)ccc12` (stereo not drawn) [Chloroquine], in assay [1], the “Cholesterol-free media + simvastatin (0.04 μM)” value came to 2.192, the “Complete Media” value is 0.9997 and the Difference was −1.19. In assay [2], the Cholesterol-free came out at 1.226, the Complete amounted to 0.9181 and the Difference was −0.31.
Regarding `CO[C@@H]1[C@@H](OC(N)=O)[C@@H](O)[C@H](Oc2ccc3c(O)c(NC(=O)c4ccc(O)c(CC=C(C)C)c4)c(=O)oc3c2C)OC1(C)C` [Novobiocin (Sodium)], the “Cholesterol-free media + simvastatin (0.04 μM)” value in assay [1] (setting [14]) worked out at 1.139. Besides, in assay [1] (setting [12]), the “Complete Media” value stood at 1.056. Besides, the Difference in assay [1] (setting [13]) is −0.08; in assay [2] (setting [10]) it was −0.12. The Cholesterol-free in assay [2] (setting [11]) was 1.193. The Complete in assay [2] (setting [12]) was 1.072.
